# Results as given in patent US20070244449A1, “System and method for the prevention of bacterial and fungal infections including Urinary Tract Infections (UTI) using N-halogenated amino acids” (Novacal Pharmaceuticals, Inc., priority 2005, published 2007).
# What was measured:
# [1] = system: Escherichia coli ATCC 25922; assay: Destruction of 48 h biofilm on 1-cm Foley catheter pieces, plate count; format: cell-based; settings: 33 mM, 0.9% saline, pH 3.5
# Procedure: (§1) We have devised a dynamic in vitro model using traditional microbiological methods to assess the antimicrobial efficacy of 33 mM N, N-dichloro 2,2-dimethly taurine in 0.9% saline at pH 3.5, as compared to physiological saline in disinfecting intra-luminal and extra-luminal indwelling Foley catheter.
# (§2) Foley Catheter, manufactured by BARD • N,N-dichloro 2,2-dimethyl taurine (33 mM) in 0.9% saline pH 3.5 • Escherichia coli ATCC 25922 • Proteus mirabilis ATCC 29245
# (§3) Neutralizer Broth containing: A broth containing dextrose, lecithin, sodium thiosulfate, pancreatic digest of casein, Tween® 80, yeast extract, sodium bisulfate, sodium thioglycollate, monopotassium phosphate, and bromcresol purple.
# (§4) The ability of N,N-dichloro 2,2-dimethyl taurine to destroy biofilm formation was evaluated as follows. First, biofilm was established on 1-cm-long pieces of catheter for 48 hours in nutrient broth in the presence of either Proteus mirabilis or Escherichia coli. Subsequently, the biofilm-bearing pieces of catheter were exposed to 33 mM N,N-dichloro 2,2-dimethyl taurine in 0.9% saline at pH 3.5 over various periods of time. After the exposure, the pieces of catheter were transferred into 1 mL of neutralizer broth to stop the reaction. 0.1 mL (10%) of the neutralizer broth was then plated out onto nutrient agar and the number of colonies was counted. The CFU (Colony Forming Unit) values obtained were multiplied by 10 to obtain the actual CFU/mL values per treated sample.
# [2] = system: Proteus mirabilis ATCC 29245; assay: as above; format: cell-based; settings: 33 mM, 0.9% saline, pH 3.5
# Procedure: as §1, §2, §3, §4
# [3] = system: E. coli and Pr. mirabilis; assay: Treated biofilm-bearing catheter pieces: re-culture (OD600) and visual examination; format: cell-based, Escherichia coli; Proteus mirabilis
# Procedure: In order to measure the amount of live bacteria left on the pieces of catheter following treatment, the biofilm-bearing pieces of catheter were transferred into tubes containing fresh growth medium. After allowing growth in a shaker at 37° C. for 4 hours, Optical Density (OD) was read at 600 nm.
# This was also shown by very low optical denisty readings (average of 0.057 OD600 units, individual data not listed) following the attempt to re-culture the bacteria from treated catheters.
# [4] = system: urease positive Escherichia coli ATCC 25922; assay: Biofilm eradication in model urinary catheter flow system; format: cell-based; settings: for Average Log CFU/cm^2 on catheter section after treatment, average 3 pieces / Average Log CFU/cm^2 on catheter section after treatment, end / Average Log CFU/cm^2 on catheter section after treatment, front / Average Log CFU/cm^2 on catheter section after treatment, middle / Log reduction: pH 4, 0.9% NaCl; for Average Log CFU/cm^2 on catheter section after treatment, average 3 pieces / Average Log CFU/cm^2 on catheter section after treatment, end / Average Log CFU/cm^2 on catheter section after treatment, front / Average Log CFU/cm^2 on catheter section after treatment, middle: 3-day biofilm, 10 min flow + 30 min stationary; for Log reduction: versus PBS or saline
# Procedure: A test system was established which utilized size 14 Foley catheters (supplied by NovaCal), which were cut and installed into a pre-sterilized flow system (FIG. 4) using aseptic techniques. The system consists of five parallel channels, one channel per catheter. Sterile medium was supplied to the system via a flow-break, to prevent back-growth into the medium reservoir. The entire system was placed in a 37° C. incubator. After conditioning the system with artificial urine medium for 30 minutes, 2.0 ml inoculum from an overnight culture of urease positive Escherichia coli ATCC 25922 grown in artificial urine medium at 37° C. was introduced into the system via the valve closest to the flow break (bladder side of catheter). Each inoculum was tested to confirm urease production. After inoculation, the system remained under static conditions (no flow) for two hours, to allow for bacterial attachment to the catheters. Flow of artificial urine medium was then initiated and maintained at a rate of 0.75 ml/min for 3 days.
# Test Articles Used Were: • Sterile saline • N,N-dichloro 2,2-dimethyl taurine, 4 mM, pH 4, 0.9% by weight NaCl • N,N-dichloro 2,2-dimethyl taurine, 40 mM, pH 4, 0.9% by weight NaCl
# 20 ml of each treatment solution N,N-dichloro 2,2-dimethyl taurine and sterile control solution were loaded into 30 ml syringes and connected to a syringe pump. Sterile sections of tubing were attached from the syringe to the valve furthest from the flow break (bag end of the catheter). This end is designated as FRONT for sampling purposes. The pump was turned on and the treatments were introduced at 2.0 ml/min for 10 minutes through the catheters. Excess medium and treatment solution was captured in a waste container. After 10 minutes, the syringe pump was turned off and the solutions were left stationary in the catheters for 30 minutes. The solutions were then withdrawn back through the catheter into the syringe, medium flow was resumed for a 30 minute rinse time and the catheters were then sampled.
# Each catheter was divided into 3 segments (front, middle, end) and each segment was subsampled. One subsample was used to determine bacterial populations by plate count, another subsample was analyzed by staining with the LIVE/DEAD® Baclight™ bacterial viability kit (L7012, Molecular Probes, Oregon, USA) using confocal laser microscopy (CSLM), the third sample was imaged using scanning electron microscopy (SEM).
# (§5) For viable cell counts, a 3.0 centimeter section of tubing was removed and scraped with a sterile stainless steel rod (using aseptic technique) into a tube containing 10.0 ml of sterile phosphate-buffered saline (PBS). The tubes were then sonicated for two minutes and the suspension was vortexed for one minute. The number of viable (culturable) bacteria was enumerated by serial dilution in PBS and plate counts using the spread-plate technique. Results were expressed as CFU/cm^2 and are calculated as follows: [formula]
# The surface area of the internal lumen of the catheter section scraped was determined to be 2.826 cm^2.
# Three treatment runs were performed on 3 catheters each: One treated with PBS or sterile 0.9% saline as control, one treated with 4 mM and one treated with 40 mM N,N-dichloro 2,2-dimethyl taurine. The Log (CFU/cm^2) was calculated from the average of 9 treatments, consisting of 3 treatments of 3 catheter pieces for each Test Article.
# [5] = system: urease positive Escherichia coli ATCC 25922; assay: Biofilm prevention in model urinary catheter flow system; format: cell-based
# Procedure: Test Articles Used Were: • Sterile saline • White vinegar at 1:3 dilution with distilled water (filter sterilized). • Neomycin Prescription: 1 ml into 1000 ml of sterile saline • N,N-dichloro 2,2-dimethyl taurine, 40 mM, pH 4, 0.9% by weight NaCl
# Day 0: The test system, as described in detail above, utilized size 14 Foley catheters, cut and installed into a pre-sterilized flow system using aseptic techniques. Sterile medium was supplied to the system via a flow-break, to prevent back-growth into the medium reservoir. The entire system was placed into a 37° C. incubator. After conditioning the system with artificial urine medium for 30 minutes, each catheter was treated with a disinfectant. 20.0 ml of each treatment solution was loaded into 30 ml syringes and connected to a syringe pump. Sterile sections of tubing were attached from the syringe to the valve furthest from the flow break (bag end of the catheter). This end is designated as FRONT for sampling purposes. The pump was turned on and the treatments were introduced at 2.0 ml/min for 10 minutes through the catheters. Excess medium and treatment solution was captured in a waste container. After 10 minutes, the syringe pump was turned off and the solutions were left stationary in the catheters for 30 minutes. The solutions were then withdrawn back through the catheter into the syringe. The catheters were then rinsed with sterile medium for 30 minutes.
# On Day 0 only: An inoculum from an overnight culture of urease positive Escherichia coli ATCC 25922 grown in artificial urine medium at 37° C. was introduced into the system via the valve closest to the flow break (bladder side of catheter). Each inoculum was tested for confirmation of urease production. After inoculation, the system remained under static conditions (no flow) for two hours, to allow for bacterial attachment to the catheters. Flow of artificial urine medium was then initiated and maintained at a rate of 0.75 ml/min.
# as §5, with “Days 1, 3 and 5: For” for “For”, “sterile PBS.” for “sterile phosphate-buffered saline (PBS).”, “Results are” for “Results were”, “and were” for “and are”, “as described in Phase One.” for “as follows: [formula]”
# Days 1 and 3: After sampling, the catheters were disinfected and rinsed with sterile medium as described above.
# Days 2 and 4: the catheters were disinfected and rinsed with sterile medium as described above. No samples were taken.
# Day 5: Samples were taken for imaging and both ends of the catheter were sampled for viable cell count data.
# [6] = system: bacteria on Foley catheter removed from a patient; assay: Ex-vivo treatment of a patient catheter, viable plate counts; format: cell-based; settings: 40 mM
# Procedure: Test Articles Used Were: • Sterile phosphate-buffered saline (PBS) • N,N-dichloro 2,2-dimethyl taurine, 40 mM, pH 4, 0.9% by weight NaCl
# A Foley catheter was removed from a patient by hospital personnel and placed in a sterile bag. In the Bozeman Deaconess Hospital (BDH) lab, the outside of the catheter was wiped down with 70% ethanol. Then the catheter was aseptically cut into 3 catheter portions (bag-end, middle and patient-end). Each portion was cut into 3.0 cm long sections using a ruler and razor blades.
# Three of the sections (one bag-end, one middle and one patient-end) designated as control were placed into sterile PBS. Three of the sections (one bag-end, one middle and one patient-end) were placed in 40 mM N,N-dichloro 2,2-dimethyl taurine. All catheter sections were treated for 30 minutes individually in sterile glass tubes, each with sufficient solution to be immersed completely. After treatment, each 3 cm section was removed from the treatment tubes and the PBS control tubes and placed into a second glass tube containing sterile PBS for a 2 minute rinse in order to remove the treatment solution. The section was then removed from the tube and aseptically cut into 1.0 cm and 2.0 cm pieces. The 2.0 cm piece was placed in a tube containing 10 ml of sterile PBS, vortexed, sonicated and diluted for viable plate counts. The number of viable (culturable) bacteria was enumerated by serial dilution in PBS and plate counts using the spread-plate technique. Samples were plated on blood agar plates. Results will be expressed as colony-forming units/cm^2, CFU/cm^2 (calculated as 2.0 cm length×0.25 cm (radius)×3.14 (pi)=1.57 cm^2). The 1.0 cm piece was placed in 4% formaldehyde solution.
# [7] = daily treatment, DCDMT 40 mM pH 4 0.9% NaCl, vinegar 1:3 in water, neomycin prescription 1 ml in 1000 ml saline
# [8] = pH 4, 0.9% NaCl, 30 min immersion
compound,measurement,setting,value
"CC(C)(CS(=O)(=O)O)N(Cl)Cl [N,N-dichloro 2,2-dimethyl taurine]",CFU/mL,[1]; exposure 5 min,0 CFU/mL
same,CFU/mL,[1]; exposure 10 min,0 CFU/mL
same,CFU/mL,[1]; exposure 20 min,0 CFU/mL
same,CFU/mL,[1]; exposure 30 min,0 CFU/mL
same,CFU/mL,[1]; exposure 45 min,0 CFU/mL
same,CFU/mL,[1]; exposure 60 min,0 CFU/mL
same,CFU/mL,[1]; exposure 120 min,0 CFU/mL
same,CFU/mL,[1]; exposure <1 min,0 CFU/mL
same,CFU/mL,[2]; exposure 5 min,1210 CFU/mL
same,CFU/mL,[2]; exposure 10 min,150 CFU/mL
same,CFU/mL,[2]; exposure 20 min,150 CFU/mL
same,CFU/mL,[2]; exposure 30 min,100 CFU/mL
same,CFU/mL,[2]; exposure 45 min,20 CFU/mL
same,CFU/mL,[2]; exposure 60 min,10 CFU/mL
same,CFU/mL,[2]; exposure 120 min,260 CFU/mL
same,CFU/mL,[2]; exposure <1 min,>>3000 CFU/mL
same,Visual examination of biofilm on the catheter surface,[3]; 33 mM in 0.9% saline at pH 3.5,subsequent removal
same,optical density readings following re-culture of bacteria from treated catheters (average),"[3]; 33 mM, 0.9% saline, pH 3.5, 4 h growth at 37 C in fresh medium, average, individual data not listed",0.057 OD600 units
same,bacterial counts and presence of biofilm (visual interpretation from images),[4]; 4 mM and 40 mM,significantly reduced
same,"Average Log CFU/cm^2 on catheter section after treatment, average 3 pieces",[4]; 4 mM,4.4 Log CFU/cm^2
same,"Average Log CFU/cm^2 on catheter section after treatment, end",[4]; 4 mM,5.1 Log CFU/cm^2
same,"Average Log CFU/cm^2 on catheter section after treatment, front",[4]; 4 mM,4.1 Log CFU/cm^2
same,"Average Log CFU/cm^2 on catheter section after treatment, middle",[4]; 4 mM,3.9 Log CFU/cm^2
same,Log reduction,[4]; 4 mM,4.7 Log
same,"Average Log CFU/cm^2 on catheter section after treatment, average 3 pieces",[4]; 40 mM,3.8 Log CFU/cm^2
same,"Average Log CFU/cm^2 on catheter section after treatment, end",[4]; 40 mM,3.8 Log CFU/cm^2
same,"Average Log CFU/cm^2 on catheter section after treatment, front",[4]; 40 mM,3.7 Log CFU/cm^2
same,"Average Log CFU/cm^2 on catheter section after treatment, middle",[4]; 40 mM,3.8 Log CFU/cm^2
same,Log reduction,[4]; 40 mM,5.3 Log
same,biofilm formation during the 5 day duration of the experiment,"[5]; 40 mM, pH 4, 0.9% NaCl",appeared to inhibit biofilm formation
same,"Biofilm prevention, viable cell count, Day 1",[5]; [7],2.6 log CFU/cm^2
same,"Biofilm prevention, viable cell count, Day 3",[5]; [7],3.2 log CFU/cm^2
same,"Biofilm prevention, viable cell count, Day 5 ""End"" (bladder end)",[5]; [7],3.1 log CFU/cm^2
same,"Biofilm prevention, viable cell count, Day 5 ""Front"" (bag end)",[5]; [7],3.9 log CFU/cm^2
same,"Average Log CFU/cm^2 on catheter section after treatment, average 3 pieces",[6]; [8],1.2 Log CFU/cm^2
same,"Average Log CFU/cm^2 on catheter section after treatment, bag end",[6]; [8],2.1 Log CFU/cm^2
same,"Average Log CFU/cm^2 on catheter section after treatment, middle",[6]; [8],0.5 Log CFU/cm^2
same,"Average Log CFU/cm^2 on catheter section after treatment, patient end",[6]; [8],0.8 Log CFU/cm^2
same,Log reduction,[6]; compared to catheter pieces treated with sterile PBS,1.8 Log
